Where “and” joins values, the source holds several entries; their conditions need not be identical. Equal values may be shown once.
What was measured:
Test in all cases: biochemical
Type in all cases: biochemical
various kinases [1] = target: various kinases (Homo sapiens, UniProt O15530)
various kinases [2] = target: various kinases (Homo sapiens, UniProt P06493); conditions: CDK1/cyclin B
various kinases [3] = target: various kinases (Homo sapiens, UniProt P07949, S891A); conditions: kinase RET S891A; ZLYTE
various kinases (Homo sapiens, UniProt P07949, S891A), sequence (P07949 29-1114 S891A): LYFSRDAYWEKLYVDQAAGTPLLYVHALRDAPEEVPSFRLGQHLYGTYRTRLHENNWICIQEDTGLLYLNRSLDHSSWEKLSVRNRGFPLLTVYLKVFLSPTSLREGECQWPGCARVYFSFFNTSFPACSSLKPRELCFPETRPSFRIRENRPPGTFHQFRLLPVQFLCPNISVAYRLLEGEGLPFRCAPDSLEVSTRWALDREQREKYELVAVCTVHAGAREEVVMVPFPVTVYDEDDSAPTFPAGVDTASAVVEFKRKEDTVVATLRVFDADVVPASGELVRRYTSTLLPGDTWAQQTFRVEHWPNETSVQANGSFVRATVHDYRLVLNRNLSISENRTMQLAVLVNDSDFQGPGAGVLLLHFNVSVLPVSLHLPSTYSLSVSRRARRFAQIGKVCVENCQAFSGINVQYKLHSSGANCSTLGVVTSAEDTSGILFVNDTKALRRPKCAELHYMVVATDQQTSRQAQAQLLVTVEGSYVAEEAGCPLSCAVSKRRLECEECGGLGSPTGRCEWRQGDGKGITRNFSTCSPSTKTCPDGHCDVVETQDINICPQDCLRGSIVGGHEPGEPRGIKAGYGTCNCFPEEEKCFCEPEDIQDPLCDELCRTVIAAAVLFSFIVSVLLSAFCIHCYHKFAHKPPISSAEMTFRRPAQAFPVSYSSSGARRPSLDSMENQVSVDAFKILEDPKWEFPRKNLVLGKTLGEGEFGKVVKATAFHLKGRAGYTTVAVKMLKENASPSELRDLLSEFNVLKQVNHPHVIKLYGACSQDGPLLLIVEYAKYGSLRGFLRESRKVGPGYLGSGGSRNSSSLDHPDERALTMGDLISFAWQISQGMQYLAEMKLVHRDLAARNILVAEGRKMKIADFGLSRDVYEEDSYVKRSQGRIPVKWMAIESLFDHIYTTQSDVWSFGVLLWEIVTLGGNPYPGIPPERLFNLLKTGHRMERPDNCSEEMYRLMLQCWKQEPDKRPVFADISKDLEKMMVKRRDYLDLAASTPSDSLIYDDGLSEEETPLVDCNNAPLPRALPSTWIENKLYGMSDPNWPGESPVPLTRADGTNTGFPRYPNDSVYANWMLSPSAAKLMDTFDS

various kinases [4] = target: various kinases (Homo sapiens, UniProt P07949, V804E); conditions: kinase RET V804E; ZLYTE
various kinases (Homo sapiens, UniProt P07949, V804E), sequence (P07949 29-1114 V804E): as the sequence (P07949 29-1114 S891A) above, with V776E, A863S counted along it

various kinases [5] = target: various kinases (Homo sapiens, UniProt P10721, V560G); conditions: KIT V560G
various kinases (Homo sapiens, UniProt P10721, V560G), sequence (P10721 26-976 V560G): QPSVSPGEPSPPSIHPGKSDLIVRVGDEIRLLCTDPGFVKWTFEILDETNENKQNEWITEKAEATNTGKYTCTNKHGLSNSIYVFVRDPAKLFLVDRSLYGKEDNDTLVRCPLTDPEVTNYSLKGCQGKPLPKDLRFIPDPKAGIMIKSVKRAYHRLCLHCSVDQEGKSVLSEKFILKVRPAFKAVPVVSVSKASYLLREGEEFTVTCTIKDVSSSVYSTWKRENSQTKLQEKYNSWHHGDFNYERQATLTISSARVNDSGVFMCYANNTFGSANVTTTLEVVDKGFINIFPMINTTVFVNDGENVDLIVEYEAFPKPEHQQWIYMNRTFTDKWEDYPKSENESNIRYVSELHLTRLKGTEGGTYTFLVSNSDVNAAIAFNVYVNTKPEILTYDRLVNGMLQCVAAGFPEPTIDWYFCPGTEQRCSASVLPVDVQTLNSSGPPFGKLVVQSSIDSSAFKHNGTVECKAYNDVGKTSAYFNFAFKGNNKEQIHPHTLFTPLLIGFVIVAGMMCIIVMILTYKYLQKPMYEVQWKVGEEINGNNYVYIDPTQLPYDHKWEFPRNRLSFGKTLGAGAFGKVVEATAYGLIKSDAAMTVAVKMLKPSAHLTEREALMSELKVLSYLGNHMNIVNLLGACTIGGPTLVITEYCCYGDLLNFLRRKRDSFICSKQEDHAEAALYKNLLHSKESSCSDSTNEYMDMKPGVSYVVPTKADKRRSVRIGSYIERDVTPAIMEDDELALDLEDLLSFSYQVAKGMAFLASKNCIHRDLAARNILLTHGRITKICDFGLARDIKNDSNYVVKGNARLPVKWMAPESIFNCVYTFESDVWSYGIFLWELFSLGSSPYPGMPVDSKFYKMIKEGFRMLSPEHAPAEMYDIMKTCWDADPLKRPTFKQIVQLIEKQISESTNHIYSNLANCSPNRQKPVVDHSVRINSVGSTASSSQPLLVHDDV

various kinases [6] = target: various kinases (Homo sapiens, UniProt P11362); conditions: FGFR1
various kinases [7] = target: various kinases (Homo sapiens, UniProt P23443); conditions: kinase RPS6KB1 (p70S6K); ZLYTE
various kinases (Homo sapiens, UniProt P23443), sequence (P23443 whole entry): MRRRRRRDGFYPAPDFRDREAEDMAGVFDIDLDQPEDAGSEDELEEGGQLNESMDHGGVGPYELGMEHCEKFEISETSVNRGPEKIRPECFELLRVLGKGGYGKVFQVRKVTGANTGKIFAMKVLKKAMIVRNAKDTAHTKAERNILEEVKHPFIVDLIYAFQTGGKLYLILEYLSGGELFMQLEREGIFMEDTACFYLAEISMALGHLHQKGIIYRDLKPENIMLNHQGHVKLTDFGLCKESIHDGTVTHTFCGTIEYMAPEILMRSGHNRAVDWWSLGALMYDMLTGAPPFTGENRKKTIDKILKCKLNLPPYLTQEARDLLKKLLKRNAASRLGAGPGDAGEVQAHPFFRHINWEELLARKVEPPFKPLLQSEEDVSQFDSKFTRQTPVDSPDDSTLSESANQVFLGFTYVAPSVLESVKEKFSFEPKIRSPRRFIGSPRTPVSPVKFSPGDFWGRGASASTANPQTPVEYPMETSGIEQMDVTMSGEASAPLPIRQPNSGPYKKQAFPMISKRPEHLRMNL

various kinases [8] = target: various kinases (Homo sapiens, UniProt P25098); conditions: ADRBK1 (GRK2)
various kinases [9] = target: various kinases (Homo sapiens, UniProt P30530); conditions: AXL
various kinases [10] = target: various kinases (Homo sapiens, UniProt P32298); conditions: GRK4
various kinases [11] = target: T1, various kinases (Homo sapiens, UniProt P43403); conditions: kinase ZAP70; ZLYTE
T1 sequence (P43403 1-619): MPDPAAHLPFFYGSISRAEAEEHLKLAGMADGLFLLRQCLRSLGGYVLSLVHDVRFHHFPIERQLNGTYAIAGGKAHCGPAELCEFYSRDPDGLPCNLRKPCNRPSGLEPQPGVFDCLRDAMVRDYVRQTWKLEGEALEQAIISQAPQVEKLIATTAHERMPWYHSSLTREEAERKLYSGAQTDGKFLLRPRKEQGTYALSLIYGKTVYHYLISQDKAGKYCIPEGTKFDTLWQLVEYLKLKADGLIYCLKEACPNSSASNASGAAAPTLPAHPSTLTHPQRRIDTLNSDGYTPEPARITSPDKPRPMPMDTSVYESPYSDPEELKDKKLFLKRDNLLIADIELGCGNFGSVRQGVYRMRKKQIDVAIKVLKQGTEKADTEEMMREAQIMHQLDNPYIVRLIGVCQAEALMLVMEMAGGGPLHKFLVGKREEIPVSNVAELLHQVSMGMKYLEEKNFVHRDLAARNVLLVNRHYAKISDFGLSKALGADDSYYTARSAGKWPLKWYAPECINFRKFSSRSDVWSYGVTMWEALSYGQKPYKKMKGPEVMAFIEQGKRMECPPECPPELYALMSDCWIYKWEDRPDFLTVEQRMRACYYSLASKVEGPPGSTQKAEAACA

various kinases [12] = target: various kinases (Homo sapiens, UniProt P48729); conditions: CSNK1A1 (CK1 alpha 1)
various kinases [13] = target: various kinases (Homo sapiens, UniProt P51955); conditions: NEK2
various kinases (Homo sapiens, UniProt P51955), sequence (P51955 whole entry): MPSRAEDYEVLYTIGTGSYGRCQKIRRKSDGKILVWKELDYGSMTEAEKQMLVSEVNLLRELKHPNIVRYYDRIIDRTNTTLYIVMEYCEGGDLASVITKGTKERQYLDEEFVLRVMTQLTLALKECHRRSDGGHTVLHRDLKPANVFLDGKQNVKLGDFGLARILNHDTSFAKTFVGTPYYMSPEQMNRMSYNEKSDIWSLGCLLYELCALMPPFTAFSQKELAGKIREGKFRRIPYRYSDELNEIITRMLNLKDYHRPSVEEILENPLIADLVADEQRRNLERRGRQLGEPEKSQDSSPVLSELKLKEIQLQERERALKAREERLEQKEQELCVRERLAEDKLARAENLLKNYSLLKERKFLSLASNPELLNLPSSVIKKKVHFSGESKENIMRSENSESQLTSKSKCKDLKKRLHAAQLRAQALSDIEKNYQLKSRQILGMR

various kinases [14] = target: various kinases (Homo sapiens, UniProt P52564); conditions: MAP2K6 (MKK6)
various kinases [15] = target: various kinases (Homo sapiens, UniProt Q04912); conditions: MST1R (RON)
various kinases [16] = target: various kinases (Homo sapiens, UniProt Q16512); conditions: kinase PKN1 (PRK1); ZLYTE
various kinases (Homo sapiens, UniProt Q16512), sequence (Q16512 whole entry): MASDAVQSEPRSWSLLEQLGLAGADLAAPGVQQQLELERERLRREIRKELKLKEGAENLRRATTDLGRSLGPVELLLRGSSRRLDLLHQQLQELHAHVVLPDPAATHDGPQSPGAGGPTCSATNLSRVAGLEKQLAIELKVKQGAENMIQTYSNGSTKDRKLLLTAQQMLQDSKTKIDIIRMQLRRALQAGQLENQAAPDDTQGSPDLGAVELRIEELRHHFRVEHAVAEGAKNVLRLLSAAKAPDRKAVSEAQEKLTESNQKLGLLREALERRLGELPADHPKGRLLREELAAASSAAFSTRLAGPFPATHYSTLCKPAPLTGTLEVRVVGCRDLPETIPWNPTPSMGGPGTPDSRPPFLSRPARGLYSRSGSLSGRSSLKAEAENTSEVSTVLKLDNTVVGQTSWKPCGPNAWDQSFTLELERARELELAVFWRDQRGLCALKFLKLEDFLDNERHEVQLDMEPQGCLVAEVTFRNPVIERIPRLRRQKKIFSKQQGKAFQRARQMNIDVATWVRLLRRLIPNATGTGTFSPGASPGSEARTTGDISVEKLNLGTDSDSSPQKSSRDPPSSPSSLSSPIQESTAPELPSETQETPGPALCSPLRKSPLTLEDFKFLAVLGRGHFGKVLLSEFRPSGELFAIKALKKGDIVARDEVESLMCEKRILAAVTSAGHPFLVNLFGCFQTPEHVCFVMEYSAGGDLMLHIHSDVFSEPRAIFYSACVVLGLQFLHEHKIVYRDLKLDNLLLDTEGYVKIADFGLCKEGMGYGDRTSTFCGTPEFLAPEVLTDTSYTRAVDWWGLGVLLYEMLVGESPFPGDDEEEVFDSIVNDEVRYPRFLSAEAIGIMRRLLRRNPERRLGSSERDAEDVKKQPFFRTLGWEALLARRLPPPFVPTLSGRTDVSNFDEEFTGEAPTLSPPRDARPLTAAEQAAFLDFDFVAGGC

various kinases [17] = target: various kinases (Homo sapiens, UniProt Q7KZI7); conditions: MARK2
various kinases [18] = target: various kinases (Homo sapiens, UniProt Q8IU85); conditions: CAMK1D (CaMKI delta)
various kinases [19] = target: various kinases (Homo sapiens, UniProt Q8N568); conditions: DCAMKL2 (DCK2)
various kinases [20] = target: various kinases (Homo sapiens, UniProt Q8NE63); conditions: HIPK4
various kinases [21] = target: various kinases (Homo sapiens, UniProt Q8TD19); conditions: NEK9
various kinases [22] = target: various kinases (Homo sapiens, UniProt Q96NX5); conditions: CAMK1G (CAMKI gamma)
various kinases [23] = target: various kinases (Homo sapiens, UniProt Q9H792); conditions: PEAK1
various kinases [24] = target: various kinases (Homo sapiens, UniProt Q9HC98); conditions: NEK6
various kinases [25] = target: various kinases (Homo sapiens, UniProt Q9NQU5); conditions: PAK6
various kinases [26] = target: various kinases (Homo sapiens, UniProt Q9NWZ3); conditions: IRAK4
various kinases [27] = target: various kinases (Homo sapiens, UniProt Q9P286); conditions: PAK7 (KIAA1264)
various kinases [28] = target: various kinases (Homo sapiens, UniProt Q9P289); conditions: MST4
various kinases [29] = target: various kinases (Homo sapiens, UniProt Q9UM73); conditions: ALK
various kinases [30] = target: various kinases (Homo sapiens, UniProt Q9Y6E0); conditions: kinase STK24 (MST3); ZLYTE
various kinases (Homo sapiens, UniProt Q9Y6E0), sequence (Q9Y6E0 whole entry): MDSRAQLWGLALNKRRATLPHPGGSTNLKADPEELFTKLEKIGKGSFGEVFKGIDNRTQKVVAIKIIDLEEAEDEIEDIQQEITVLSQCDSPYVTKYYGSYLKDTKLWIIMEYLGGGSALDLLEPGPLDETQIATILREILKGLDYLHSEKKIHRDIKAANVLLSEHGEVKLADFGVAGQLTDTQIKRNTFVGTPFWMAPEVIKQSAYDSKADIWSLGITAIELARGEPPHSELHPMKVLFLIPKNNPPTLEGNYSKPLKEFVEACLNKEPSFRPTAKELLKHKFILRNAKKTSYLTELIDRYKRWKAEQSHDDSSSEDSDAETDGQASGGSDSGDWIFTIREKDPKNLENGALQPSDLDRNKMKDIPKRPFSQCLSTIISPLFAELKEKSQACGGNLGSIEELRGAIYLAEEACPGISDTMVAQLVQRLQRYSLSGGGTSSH

various kinases (Homo sapiens, UniProt O15530), sequence (O15530 whole entry): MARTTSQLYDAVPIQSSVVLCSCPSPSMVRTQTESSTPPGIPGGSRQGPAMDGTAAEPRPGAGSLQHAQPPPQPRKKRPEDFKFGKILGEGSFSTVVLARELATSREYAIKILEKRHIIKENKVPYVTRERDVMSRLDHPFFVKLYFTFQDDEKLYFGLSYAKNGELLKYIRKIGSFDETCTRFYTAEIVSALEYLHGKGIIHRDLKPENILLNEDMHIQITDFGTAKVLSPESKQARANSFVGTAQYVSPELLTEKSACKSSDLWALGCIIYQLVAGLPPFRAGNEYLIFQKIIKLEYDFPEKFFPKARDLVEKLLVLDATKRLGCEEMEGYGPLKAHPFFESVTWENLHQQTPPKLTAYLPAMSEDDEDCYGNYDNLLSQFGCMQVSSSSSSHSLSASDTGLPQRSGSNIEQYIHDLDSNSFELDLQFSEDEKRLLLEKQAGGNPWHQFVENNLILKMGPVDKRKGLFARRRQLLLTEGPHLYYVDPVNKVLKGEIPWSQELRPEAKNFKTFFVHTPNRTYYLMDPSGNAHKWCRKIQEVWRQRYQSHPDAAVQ

In the case of COc1ccc2c(c1)[C@]1(C[C@H]1c1ccc3c(/C=C/c4ccc(CN5C[C@@H](C)O[C@@H](C)C5)cc4)n[nH]c3c1)C(=O)N2 [CFI-400945], the “% Inhibition” value (various kinases [1]; PDK1) is reported as 3% and 2%, the “% Inhibition” value (various kinases [1]; PDK1 Direct) is reported as 6% and the “% Inhibition” value (various kinases [2]) is reported as 16% and 12%. For the same molecule, the “% Inhibition Average” value (various kinases [3]) was 55%, the “% Inhibition Duplicate #1” value (various kinases [3]) was 59% and the “% Inhibition Duplicate #2” value (various kinases [3]) was 52%. The “% Inhibition Average” value (various kinases [4]) was 0%, the “% Inhibition Duplicate #1” value (various kinases [4]) was 0% and the “% Inhibition Duplicate #2” value (various kinases [4]) was 0%. The “% Inhibition” value (various kinases [5]) was 11% and 7%, the “% Inhibition” value (various kinases [6]) was 59% and 55% and the “% Inhibition Average” value (various kinases [7]) was 7%. For the same molecule, the “% Inhibition Duplicate #1” value (various kinases [7]) was 6%, the “% Inhibition Duplicate #2” value (various kinases [7]) was 8% and the “% Inhibition” value (various kinases [8]) was 5% and 4%. For the same molecule, the “% Inhibition” value (various kinases [9]) was 10% and 11%, the “% Inhibition” value (various kinases [10]) was 1% and -1% and the “% Inhibition Average” value (various kinases [11]) was 2%. The “% Inhibition Duplicate #1” value (various kinases [11]) was 0%, the “% Inhibition Duplicate #2” value (various kinases [11]) was 4% and the “% Inhibition” value (various kinases [12]) was 7%. The “% Inhibition” value (various kinases [13]) was -1% and 1%, the “% Inhibition” value (various kinases [14]) was 4% and -2% and the “% Inhibition” value (various kinases [15]) was 8% and 9%. The “% Inhibition Average” value (various kinases [16]) was 20%, the “% Inhibition Duplicate #1” value (various kinases [16]) was 27% and the “% Inhibition Duplicate #2” value (various kinases [16]) was 13%. The “% Inhibition” value (various kinases [17]) was 7% and 2%, the “% Inhibition” value (various kinases [18]) was -5% and 0% and the “% Inhibition” value (various kinases [19]) was -7% and -1%. For the same molecule, the “% Inhibition” value (various kinases [20]) was -1% and 2%, the “% Inhibition” value (various kinases [21]) was 10% and 4% and the “% Inhibition” value (various kinases [22]) was -3% and 2%. The “% Inhibition” value (various kinases [23]) was 5% and 11%, the “% Inhibition” value (various kinases [24]) was 8% and 13% and the “% Inhibition” value (various kinases [25]) was 12% and 7%. For the same molecule, the “% Inhibition” value (various kinases [26]) was 0% and -3%, the “% Inhibition” value (various kinases [27]) was 9% and 13% and the “% Inhibition” value (various kinases [28]) was 14% and 10%. For the same molecule, the “% Inhibition” value (various kinases [29]) was 51%, the “% Inhibition Average” value (various kinases [30]) was 7% and the “% Inhibition Duplicate #1” value (various kinases [30]) was 7%. The “% Inhibition Duplicate #2” value (various kinases [30]) was 7%.

Source: PMC5762315, “Inhibition of polo-like kinase 4 (PLK4): a new therapeutic option for rhabdoid tumors and pediatric medulloblastoma” (Oncotarget, 2017)
